Assays:
[1] = test system: Cyp7a1; test: Acute mouse in vivo assay, Cyp7a1 gene expression in liver; conditions: @ 6 h
Method: (§1) Acute Mouse In Vivo Assay:
(§2) Male, C57BL6/NTac mice, weighing 25-28 g, are purchased from Taconic Labs (Hudson, N.Y.) and maintained on Teklad Global 18% Protein Rodent Diet (Harlan Laboratories). After 1 week acclimation, mice are sorted into groups based upon body weight. Mice are administered a single oral dose of vehicle or experimental compound. Systemic compound exposure is evaluated in plasma derived from blood collected via the submandibular vein at 1 hour post-dose, and at study termination (6 h). At study termination, the animals are euthanized and rapidly dissected. The medial lobe of the liver is divided, with one half being homogenized and analyzed for compound exposure, and the other half saved in RNAlater (Thermo-Fisher Scientific). The ileum is also dissected and preserved in RNAlater. Tissue samples in RNAlater are homogenized with MP Biomedicals' beads. RNA is extracted using the MagMax-96 Total RNA Isolation kit (Thermo-Fisher Scientific) according to the manufacturer's protocol. RNA Concentration is determined with the Nano-Drop 8000 Spectrophotometer (Thermo Fisher). Reverse transcription is done with Invitrogen's SuperScript® VILO cDNA Synthesis Kit according to the manufacturer's protocol. Real time PCR is done with Applied Biosystems' Taqman PCR master mixture according to the manufacturer's protocol. All primers are purchased from Thermo-Fisher Scientific. Mouse genes analyzed include Nr0b2 (which encodes the small heterodimer partner, SHP), Abcb11 (which encodes the bile salt excretion pump, BSEP), Cyp7a1, & Cyp8b1 in liver, and Fgf15, Fabp6 (which encodes ileal bile acid binding protein, I-BABP), Slc51a (which encodes organic solute transporter alpha subunit, OSTA), and Slc51b (which encodes organic solute transporter beta subunit, OSTB) in the ileum. The statistical significant changes in FGF15 gene expression are expressed as fold increase and CYP7A1 expression as a percent reduction relative to vehicle control.

[2] = test system: Fgf15; test: Acute mouse in vivo assay, Fgf15 gene expression in ileum; conditions: @ 6 h
Method: as §1, §2

[3] = molecular target: T1, human FXR (Homo sapiens, UniProt Q96RI1); test: transient human FXR/Gal4-luciferase reporter assay; format: cell-based; conditions: Gal4-hFXR transfected HEK293 reporter cells; relative to 8 μM GW-4064
T1 construct: expressed in transfected cells; host or cells: HEK293 cells stably carrying a 5xGal4-response-element firefly luciferase reporter, transiently transfected with pcDNA3.1-Gal4-FXR
T1 sequence (Q96RI1 262-486 limits assumed): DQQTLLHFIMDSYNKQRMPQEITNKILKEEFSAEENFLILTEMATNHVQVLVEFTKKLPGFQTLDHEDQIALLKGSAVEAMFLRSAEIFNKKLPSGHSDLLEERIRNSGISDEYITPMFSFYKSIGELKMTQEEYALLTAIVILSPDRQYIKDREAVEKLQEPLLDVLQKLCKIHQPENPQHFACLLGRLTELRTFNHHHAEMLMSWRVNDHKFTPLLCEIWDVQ
How it was run: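 Transient Gal4-hFXR LBD fusion (pcDNA3.1, Lipofectamine, overnight) expressed in a HEK293 reporter line stably bearing five Gal4 elements upstream of firefly luciferase, grown in charcoal/dextran-stripped FBS. Compound dilutions in DMSO incubated with cells overnight at 37° C, 5% CO2, before luciferase readout.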

EC50 [3] [nM]	SMILES	Cyp7a1 expression, percent reduction relative to vehicle control ([1]; single oral dose 3 mg/kg) [%]	Fgf15 expression, fold increase relative to vehicle control ([2]; single oral dose 3 mg/kg)	also measured
–	O=C(O)c1cc(F)c2nc(N3CCC4(C=C(c5c(-c6c(Cl)cccc6Cl)noc5C5CC5)C4)CC3)sc2c1 [Example 1, 2-(2-(5-Cyclopropyl-3-(2,6-dichlorophenyl)isoxazol-4-yl)-7-azaspiro[3.5]non-1-en-7-yl)-4-fluorobenzo[d]thiazole-6-carboxylic acid]	−99	+18 ×	Cyp7a1 expression, percent reduction relative to vehicle control ([1]; single oral dose 30 mg/kg): −99%; Fgf15 expression, fold increase relative to vehicle control ([2]; single oral dose 30 mg/kg): +31 ×
–	O=C(O)c1ccc2cc(N3CCC4(C=C(c5c(-c6c(Cl)cccc6Cl)noc5C5CC5)C4)CC3)ccc2n1 [Example 20, 6-(2-(5-Cyclopropyl-3-(2,6-dichlorophenyl)isoxazol-4-yl)-7-azaspiro[3.5]non-1-en-7-yl) quinoline-2-carboxylic acid]	−98	–	–
–	O=C(O)c1cc(C(F)(F)F)c2cc(N3CCC4(C=C(c5c(-c6c(Cl)cncc6Cl)noc5C5CC5)C4)CC3)ccc2n1 [Example 85, 6-(2-(5-cyclopropyl-3-(3,5-dichloropyridin-4-yl)isoxazol-4-yl)-7-azaspiro[3.5]non-1-en-7-yl)-4-(trifluoromethyl)quinoline-2-carboxylic acid]	−94	–	–
32	COc1cc(C(=O)O)nc2ccc(N3CCC4(C=C(c5c(-c6c(Cl)cncc6Cl)noc5C5CC5)C4)CC3)cc12 [Example 108, 6-(2-(5-Cyclopropyl-3-(3,5-dichloropyridin-4-yl)isoxazol-4-yl)-7-azaspiro[3.5]non-1-en-7-yl)-4-methoxyquinoline-2-carboxylic acid]	−97	+14 ×	–
73	CS(=O)(=O)NC(=O)c1cc(C(F)(F)F)c2cc(N3CCC4(C=C(c5c(-c6c(Cl)cncc6Cl)noc5C5CC5)C4)CC3)ccc2n1 [Example 184, 6-(2-(5-Cyclopropyl-3-(3,5-dichloropyridin-4-yl)isoxazol-4-yl)-7-azaspiro[3.5]non-1-en-7-yl)-N-(methylsulfonyl)-4-(trifluoromethyl)quinoline-2-carboxamide]	−99	+28 ×	–
378	Cc1cc(C(=O)O)cc2sc(N3CCC4(CC3)CC(c3c(C(F)F)cnn3-c3ccccc3C(F)(F)F)C4)nc12 [Example 220, 2-(2-(4-(Difluoromethyl)-1-(2-(trifluoromethyl)phenyl)-1H-pyrazol-5-yl)-7-azaspiro[3.5]nonan-7-yl)-4-methylbenzo[d]thiazole-6-carboxylic acid]	–	–	–
182	Cc1cc(C(=O)O)cc2sc(N3CCC4(C=C(c5c(C(F)F)cnn5-c5ccccc5OC(F)(F)F)C4)CC3)nc12 [Example 221, 2-(2-(4-(Difluoromethyl)-1-(2-(trifluoromethoxy)phenyl)-1H-pyrazol-5-yl)-7-azaspiro[3.5]non-1-en-7-yl)-4-methylbenzo[d]thiazole-6-carboxylic acid]	–	–	–
275	Cn1cc(C(=O)O)c2ccc(N3CCC4(CC3)CC(c3c(C(F)F)cnn3-c3ccccc3C(F)(F)F)C4)cc21 [Example 222, 6-(2-(4-(Difluoromethyl)-1-(2-(trifluoromethyl)phenyl)-1H-pyrazol-5-yl)-7-azaspiro[3. 5]nonan-7-yl)-1-methyl-1H-indole-3-carboxylic acid]	–	–	–
205	O=C(O)c1ccc(N2CCC3(C=C(c4c(C(F)F)cnn4-c4ccccc4C(F)(F)F)C3)CC2)nc1 [Example 223]	–	–	–
73	O=C(O[C@@H]1O[C@H](C(=O)O)[C@@H](O)[C@H](O)[C@H]1O)c1cc(C(F)(F)F)c2cc(N3CCC4(C=C(c5c(-c6c(Cl)cncc6Cl)noc5C5CC5)C4)CC3)ccc2n1 [Example 224, (2S,3S,4S,5R,6S)-6-((6-(2-(5-Cyclopropyl-3-(3,5-dichloropyridin-4-yl)isoxazol-4-yl)-7-azaspiro[3.5]non-1-en-7-yl)-4-(trifluoromethyl)quinoline-2-carbonyl)oxy)-3,4,5-trihydroxytetrahydro-2H-pyran-2-carboxylic acid]	–	–	–
